Results taken from PubChem BioAssay (NCI).
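Cultured in 96-well plates, cells were exposed to test compound for 48 hours across five concentrations. Definition used: TGI = concentration required for complete inhibition of growth.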

Legend:
Test in all cases: NCI tumour cell line growth inhibition, 48 h
[1] = tested on: 786-0 renal
[2] = tested on: A498 renal
[3] = tested on: A549 NSCLC
[4] = tested on: ACHN renal
[5] = tested on: BT-549 breast
[6] = tested on: CAKI-1 renal
[7] = tested on: CCRF-CEM leukemia
[8] = tested on: COLO 205 colon
[9] = tested on: DU-145 prostate
[10] = tested on: EKVX NSCLC
[11] = tested on: HCC-2998 colon
[12] = tested on: HCT-116 colon
[13] = tested on: HCT-15 colon
[14] = tested on: HOP-62 NSCLC
[15] = tested on: HOP-92 NSCLC
[16] = tested on: HS 578T breast
[17] = tested on: HT29 colon
[18] = tested on: IGROV1 ovarian
[19] = tested on: K-562 leukemia
[20] = tested on: KM12 colon
[21] = tested on: LOX IMVI melanoma
[22] = tested on: M14 melanoma
[23] = tested on: MALME-3M melanoma
[24] = tested on: MCF7 breast
[25] = tested on: MDA-MB-231 breast
[26] = tested on: MDA-MB-435
[27] = tested on: MDA-N
[28] = tested on: MOLT-4 leukemia
[29] = tested on: NCI-H23 lung
[30] = tested on: NCI-H460 lung
[31] = tested on: NCI-H522 lung
[32] = tested on: NCI/ADR-RES ovarian
[33] = tested on: OVCAR-3 ovarian
[34] = tested on: OVCAR-4 ovarian
[35] = tested on: OVCAR-5 ovarian
[36] = tested on: OVCAR-8 ovarian
[37] = tested on: PC-3 prostate
[38] = tested on: RPMI-8226 leukemia
[39] = tested on: RXF 393 renal
[40] = tested on: SF-268 CNS
[41] = tested on: SF-539 CNS
[42] = tested on: SK-MEL-2 melanoma
[43] = tested on: SK-MEL-28 melanoma
[44] = tested on: SK-MEL-5 melanoma
[45] = tested on: SK-OV-3 ovarian
[46] = tested on: SN12C renal
[47] = tested on: SNB-19 CNS
[48] = tested on: SNB-75 CNS
[49] = tested on: SR leukemia
[50] = tested on: SW-620 colon
[51] = tested on: T-47D breast
[52] = tested on: TK-10 renal
[53] = tested on: U251 CNS
[54] = tested on: UACC-257 melanoma
[55] = tested on: UACC-62 melanoma
[56] = tested on: UO-31 renal
[57] = tested on: HL-60(TB) leukemia
[58] = tested on: SF-295 CNS
[59] = tested on: NCI-H226 lung

`CCOC(=O)C(O)Cc1cnc2ccccc2n1` (stereo not drawn) was tested, and the TGI [1] was over 100 µM, the TGI [2] was over 100 µM and the TGI [3] was over 100 µM. The TGI [4] was over 100 µM, the TGI [5] was over 100 µM and the TGI [6] was over 100 µM. It also gave a TGI [7] of over 100 µM, a TGI [8] of over 100 µM and a TGI [9] of over 100 µM. For the same compound, the TGI [10] was over 100 µM, the TGI [11] was over 100 µM and the TGI [12] was over 100 µM. The TGI [13] was over 100 µM, the TGI [14] was over 100 µM and the TGI [15] was over 100 µM. It also gave a TGI [16] of over 100 µM, a TGI [17] of over 100 µM and a TGI [18] of over 100 µM. The TGI [19] was over 100 µM, the TGI [20] was over 100 µM and the TGI [21] was over 100 µM. For the same compound, the TGI [22] was over 100 µM, the TGI [23] was over 100 µM and the TGI [24] was over 100 µM. It also gave a TGI [25] of over 100 µM, a TGI [26] of over 100 µM and a TGI [27] of over 100 µM. It also gave a TGI [28] of over 100 µM, a TGI [29] of over 100 µM and a TGI [30] of over 100 µM. It also gave a TGI [31] of over 100 µM, a TGI [32] of over 100 µM and a TGI [33] of over 100 µM. For the same compound, the TGI [34] was over 100 µM, the TGI [35] was over 100 µM and the TGI [36] was over 100 µM. The TGI [37] was over 100 µM, the TGI [38] was over 100 µM and the TGI [39] was over 100 µM. It also gave a TGI [40] of over 100 µM, a TGI [41] of over 100 µM and a TGI [42] of over 100 µM. For the same compound, the TGI [43] was over 100 µM, the TGI [44] was over 100 µM and the TGI [45] was over 100 µM. It also gave a TGI [46] of over 100 µM, a TGI [47] of over 100 µM and a TGI [48] of over 100 µM. For the same compound, the TGI [49] was over 100 µM, the TGI [50] was over 100 µM and the TGI [51] was over 100 µM. The TGI [52] was over 100 µM, the TGI [53] was over 100 µM and the TGI [54] was over 100 µM. It also gave a TGI [55] of over 100 µM and a TGI [56] of over 100 µM.
With `CC(C)N(C(=O)C12C3(C(=O)C(C)(C)C)C4C5(C#N)C3C1(C(=O)C(C)(C)C)C5C42C(=O)C(C)(C)C)C(C)C` (stereo not drawn) the TGI [1] was over 100 µM, the TGI [2] was over 100 µM and the TGI [3] was over 100 µM. For the same compound, the TGI [4] was over 100 µM, the TGI [5] was over 100 µM and the TGI [6] was over 100 µM. For the same compound, the TGI [7] was over 100 µM, the TGI [8] was over 100 µM and the TGI [9] was over 100 µM. The TGI [10] was over 100 µM, the TGI [11] was over 100 µM and the TGI [12] was over 100 µM. For the same compound, the TGI [13] was over 100 µM, the TGI [57] was over 100 µM and the TGI [14] was over 100 µM. For the same compound, the TGI [15] was over 100 µM, the TGI [16] was over 100 µM and the TGI [17] was over 100 µM. It also gave a TGI [18] of over 100 µM, a TGI [19] of over 100 µM and a TGI [20] of over 100 µM. It also gave a TGI [21] of over 100 µM, a TGI [22] of over 100 µM and a TGI [24] of over 100 µM. For the same compound, the TGI [25] was over 100 µM, the TGI [26] was over 100 µM and the TGI [27] was over 100 µM. For the same compound, the TGI [28] was over 100 µM, the TGI [29] was over 100 µM and the TGI [30] was over 100 µM. For the same compound, the TGI [31] was over 100 µM, the TGI [32] was over 100 µM and the TGI [33] was over 100 µM. It also gave a TGI [34] of over 100 µM, a TGI [35] of over 100 µM and a TGI [36] of over 100 µM. It also gave a TGI [37] of over 100 µM, a TGI [39] of over 100 µM and a TGI [40] of over 100 µM. The TGI [58] was over 100 µM, the TGI [41] was over 100 µM and the TGI [42] was over 100 µM. The TGI [43] was over 100 µM, the TGI [44] was over 100 µM and the TGI [46] was over 100 µM. It also gave a TGI [47] of over 100 µM, a TGI [48] of 91 µM and a TGI [49] of over 100 µM. For the same compound, the TGI [50] was over 100 µM, the TGI [51] was over 100 µM and the TGI [52] was over 100 µM. For the same compound, the TGI [53] was over 100 µM, the TGI [54] was over 100 µM and the TGI [55] was over 100 µM. The TGI [56] was over 100 µM.
`Nc1ncnc2c1ncn2[C@@H]1C[C@H](NO)[C@@H](O)[C@H]1O` showed a TGI [1] of over 100 µM, a TGI [2] of over 100 µM and a TGI [3] of over 100 µM. It also gave a TGI [4] of over 100 µM, a TGI [5] of over 100 µM and a TGI [7] of over 100 µM. The TGI [8] was over 100 µM, the TGI [9] was over 100 µM and the TGI [10] was over 100 µM. It also gave a TGI [11] of over 100 µM, a TGI [12] of over 100 µM and a TGI [13] of over 100 µM. The TGI [14] was over 100 µM, the TGI [15] was over 100 µM and the TGI [16] was over 100 µM. It also gave a TGI [18] of over 100 µM, a TGI [19] of over 100 µM and a TGI [20] of over 100 µM. For the same compound, the TGI [21] was over 100 µM, the TGI [22] was over 100 µM and the TGI [23] was over 100 µM. For the same compound, the TGI [24] was over 100 µM, the TGI [25] was over 100 µM and the TGI [26] was over 100 µM. For the same compound, the TGI [27] was over 100 µM, the TGI [28] was over 100 µM and the TGI [59] was over 100 µM. The TGI [29] was over 100 µM, the TGI [30] was over 100 µM and the TGI [31] was over 100 µM. It also gave a TGI [32] of over 100 µM, a TGI [33] of over 100 µM and a TGI [34] of over 100 µM. The TGI [35] was over 100 µM, the TGI [36] was over 100 µM and the TGI [37] was over 100 µM. It also gave a TGI [38] of over 100 µM, a TGI [39] of over 100 µM and a TGI [40] of over 100 µM. For the same compound, the TGI [58] was over 100 µM, the TGI [41] was over 100 µM and the TGI [42] was over 100 µM. The TGI [43] was over 100 µM, the TGI [44] was over 100 µM and the TGI [45] was over 100 µM. The TGI [46] was over 100 µM, the TGI [47] was over 100 µM and the TGI [48] was over 100 µM. It also gave a TGI [49] of over 100 µM, a TGI [50] of over 100 µM and a TGI [51] of over 100 µM. It also gave a TGI [52] of over 100 µM, a TGI [53] of over 100 µM and a TGI [54] of over 100 µM. For the same compound, the TGI [55] was over 100 µM and the TGI [56] was over 100 µM.
`COc1ccc(OC2OC(CO)C(O)C(O)C2O)cc1` (stereo not drawn) showed a TGI [1] of over 100 µM, a TGI [2] of over 100 µM and a TGI [3] of over 100 µM. For the same compound, the TGI [4] was over 100 µM, the TGI [5] was over 100 µM and the TGI [6] was over 100 µM. The TGI [7] was over 100 µM, the TGI [8] was over 100 µM and the TGI [9] was over 100 µM. For the same compound, the TGI [10] was over 100 µM, the TGI [11] was over 100 µM and the TGI [12] was over 100 µM. The TGI [13] was over 100 µM, the TGI [57] was over 100 µM and the TGI [14] was over 100 µM. It also gave a TGI [16] of over 100 µM, a TGI [17] of over 100 µM and a TGI [18] of over 100 µM. It also gave a TGI [19] of over 100 µM, a TGI [20] of over 100 µM and a TGI [21] of over 100 µM. The TGI [22] was over 100 µM, the TGI [23] was over 100 µM and the TGI [24] was over 100 µM. It also gave a TGI [25] of over 100 µM, a TGI [26] of over 100 µM and a TGI [27] of over 100 µM. For the same compound, the TGI [28] was over 100 µM, the TGI [59] was over 100 µM and the TGI [29] was over 100 µM. For the same compound, the TGI [30] was over 100 µM, the TGI [31] was over 100 µM and the TGI [32] was over 100 µM. The TGI [33] was over 100 µM, the TGI [35] was over 100 µM and the TGI [36] was over 100 µM. For the same compound, the TGI [37] was over 100 µM, the TGI [38] was over 100 µM and the TGI [40] was over 100 µM. For the same compound, the TGI [58] was over 100 µM, the TGI [41] was over 100 µM and the TGI [42] was over 100 µM. The TGI [43] was over 100 µM, the TGI [44] was over 100 µM and the TGI [45] was over 100 µM. The TGI [46] was over 100 µM, the TGI [47] was over 100 µM and the TGI [48] was over 100 µM. For the same compound, the TGI [49] was over 100 µM, the TGI [50] was over 100 µM and the TGI [51] was over 100 µM. It also gave a TGI [52] of over 100 µM, a TGI [53] of over 100 µM and a TGI [54] of over 100 µM. The TGI [55] was over 100 µM and the TGI [56] was over 100 µM.
